From patent publication US20220220565A1, “METHODS AND COMPOSITIONS FOR TREATING MELANOMA” (INSERM (INSTITUT NATIONAL DE LA SANTÉ ET DE LA RECHERCHE …, priority 2019, published 2022)
Entries after “also recorded” stand apart in the source; their conditions may differ.

Tests used:
melanoma cells = assay: Cell migration upon IKK targeting; format: cell-based, human; conditions: IKK targeting in melanoma cells
Protocol: (§1) Serum-stimulated chemotaxis, invasion and transendothelial migration were monitored using modified Boyden chambers (8 μm pores, Sigma) as described before. For invasion assays, the upper side of the filter was coated with 0.5 mg.ml-1 matrigel (Corning, N.Y., USA). Migrated cells were stained with crystal violet and counted (four fields randomly per well). For transendothelial migration, 105 HUVECs were grown in the upper chamber of gelatin-coated

[1] = test system: PTX3-expressing 501Mel cells; assay: PTX3-mediated cell migration; format: cell-based, human; conditions: data not shown
Protocol: as §1

PTX3 = PTX3 expression and secretion (immunoblot of lysates and CM); format: cell-based, human; conditions: 1205Lu cells treated with IKK inhibitor
Protocol: (§2) Immunohistochemistry and immunoblot analysis were performed as described before. IHC analysis was performed on melanoma tissue microarrays (US Biomax, MD, USA) using PTX3 antibody (HPA069320, Sigma-Aldrich; 1:50). For immunoblotting, the following antibodies were used at 1:1,000: SPARC (Bio-Techne), PTX3 (Enzo Life Sciences, Switzerland), HSP90, HSP60, TLR4, Fibronectin, ERK2 (Santa Cruz Biotechnology), MITF (Thermo Fisher Scientific), TWIST1 (Abcam, UK), SNAIL, phospho-IKKα/β (Ser176/180), NF-κB p65, phospho-NF-κB p65 (Ser536), I[…]B[…] (L35A5), I[…]B[…] (Ser32/36), IKKα, IKKβ, MYD88, phospho-AKT (Ser473), phospho-ERK1/2 (Thr202/Tyr204) (Cell Signaling Technology, MA, USA).

[2] = test system: EMT factors TWIST1 and SNAIL; assay: EMT factor expression (immunoblot); format: cell-based, human; conditions: IKK targeting in melanoma cells
Protocol: as §2

501Mel control cells = assay: Cell migration of control cells; format: cell-based, human; conditions: IKK inhibition or TWIST1 depletion
Protocol: as §1

SKMel28 cells = assay: In vitro scratch assay; format: cell-based, human; conditions: rhPTX3 added to wounded monolayers of PTX3-negative cells
Protocol: (§3) Transwell inserts and treated with human TNFa (10 ng.ml-1) for 16 h. Melanoma cells were allowed to migrate for 6 h or 16 h and migrated cells were visualized and quantified as before. Pictures of five random fields were captured for quantification using NIH ImageJ analysis software. For scratch assays, melanoma cells were grown approximately 80% confluence in 6-well plates. Wounds were generated using a sterile 200 μl pipette tip across each well. Following treatment with rhPTX3 or CM, pictures of four random fields were captured using an imaging station and the number of migrated cells in wounded area was counted with NIH ImageJ analysis software.

1205Lu cells [3] = assay: Matrigel invasion assay; format: cell-based, human; conditions: siPTX3-transfected cells, rhPTX3 100 ng.ml-1
Protocol: as §1, §3

A375 cells = assay: Serum-stimulated migration (modified Boyden chamber / Transwell); format: cell-based, human; conditions: siPTX3-transfected cells, rhPTX3 100 ng.ml-1
Protocol: as §1, §3

1205Lu cells [4] = assay: as above; format: cell-based, human
Protocol: as §1, §3

1205Lu cells [5] = assay: Transendothelial migration on monolayers of TNFα-activated HUVECs; format: cell-based, human; conditions: rhPTX3 100 ng.ml-1, 6 h
Protocol: as §1, §3

1205Lu-Luc+ cells [6] = assay: Experimental lung metastasis (long-term lung colonization) by bioluminescent melanoma cells; format: in vivo, nude mice
Protocol: All mouse experiments were carried out in accordance with the Institutional Animal Care and local ethics committees. For experimental lung metastasis studies, 5-week-old female nude mice (Harlan, IN, USA) were intravenously injected with 1205Lu Luc+cells (1×106) that were transduced with a non targeting shRNA lentivirus (shCTRL) or a PTX3 targeting shRNA lentivirus (shPTX3-5). Images were acquired using a Photon Imager (Biospace Lab, France) on mice injected i.p with 50mg.kg-1 D-luciferin (PerkinElmer, MA, USA). Lung metastasis was monitored and quantified using BLI [12]. In a second set of experiments, short-term lung colonization assays were performed with Cell Tracker Orange-stained 501Mel cells stably expressing PTX3 or not. Cells were intravenously injected in 5-week-old female nude mice that were sacrificed either 30 min or 24 h later. Lungs were perfused with PBS, fixed in 4% paraformaldehyde, OCT-embedded, cryosectioned, immunostained and imaged using a confocal microscope as described.

1205Lu-Luc+ cells [7] = assay: In vitro cell migration of shRNA-transduced cells (Boyden chamber); format: cell-based, human; conditions: among shPTX3-1 to 5; data not shown
Protocol: Negative control, PTX3 siRNA duplexes were designed by Thermo Fisher Scientific. MITF (sc-35934), MYD88 (sc-35986) and TWIST1 (sc-38604) siRNAs were from Santa Cruz Biotechnology (TX, USA). IKKα, IKKβ, and TLR4 siRNAs were from Dharmacon (CO, USA). Transfection of siRNA was carried out using Lipofectamine RNAiMAX (Thermo Fisher Scientific), at a final concentration of 25 or 50 nM. Unless stated otherwise, cells were assayed 3 days post transfection. Lentiviral vectors for stable knockdown of PTX3 (NM_002852) in melanoma cells were TRC1.5-pLKO.1-puro vectors containing a s (shPTX3-1 to 5) (Genomic center, University of Minnesota, USA). Lentiviral, packaging (psPAX2) and enveloppe (pMD2.0G) vectors were transfected into HEK293T cells and virus-containing supernatant fractions were harvested after 72 h. The supernatant fractions were filtered and used to infect bioluminescent 1205Lu cells (1205Lu-Luc+) that were described before. Transduced cells were selected with 2 μg/ml puromycin for 3 weeks. The efficiency of PTX3 knockdown was assessed by immunoblotting and analysis of in vitro cell migration using modified Boyden chambers. […]
Serum-stimulated chemotaxis, invasion and transendothelial migration were monitored using modified Boyden chambers (8 μm pores, Sigma) as described before. […] Migrated cells were stained with crystal violet and counted (four fields randomly per well). […]

Cc1ccc2nc(NCCN)c3ncc(C)n3c2c1 [BMS345541]
cell migration (melanoma cells): reduced | PTX3-mediated cell migration [1]: reduction of PTX3-mediated cell migration | autocrine production of PTX3 (PTX3): impaired the autocrine production of PTX3 | EMT factors levels [2]: reduced EMT factors levels | migration of control cells (501Mel control cells): also reduced

recombinant PTX3: recombinant human PTX3 (Bio-Techne)
migration in wound area (SKMel28 cells): enhanced the migration | rescue of invasiveness of PTX3-depleted cells (1205Lu cells [3]): restored the impaired invasiveness | rescue of migration of PTX3-depleted cells (A375 cells): rescued the migratory ability | rescue of migration by recombinant PTX3 in cells treated with a MYD88 inhibitory peptide (1205Lu cells [4]; data not shown): failed to rescue migration | rescue of migration of PTX3-depleted cells (1205Lu cells [4]; siPTX3-transfected cells, rhPTX3 100 ng.ml-1): rescued the migratory ability; also recorded: restored the migration | rescue of migration of TLR4 silenced cells (1205Lu cells [4]; siTLR4-transfected cells stimulated with rhPTX3 for 4 h): ineffective to restore the migration | rescue of transendothelial migration of PTX3-depleted cells (1205Lu cells [5]): rescued

shPTX3-5: lentiviral shRNA for stable knockdown of PTX3 (TRC1.5-pLKO.1-puro vector), SEQ ID NO: 1 (DNA CCGGGAGGAGCTCAGTATGTTTCATCTCGAGATGAAACATACTGAGCTCCTCTTTTTTG)
arrest of injected cells into the lungs (BLI) (1205Lu-Luc+ cells [6]; 15 min after tail vein injection, vs shCTRL): equally arrested into the lungs | lung colonization (BLI) (1205Lu-Luc+ cells [6]; during 15 days after tail vein injection, vs shCTRL): dramatic reduction in lung colonization | reduction in experimental lung metastasis (ex vivo BLI) (1205Lu-Luc+ cells [6]; endpoint of the assay, stable PTX3 knockdown vs control cells): 6 fold | reduction of cell migration compared to shCtrl (1205Lu-Luc+ cells [7]): most efficient in reducing cell migration
